According to US10144723B2, “Treatment of solid tumors by inhibiting MRK/ZAK” (The Feinstein Institute For Medical Research, priority 2014, dated 2018):

What was measured:
MRK [1] = target: T1, MRK (Homo sapiens, UniProt Q9NYL2); experiment: MRK activity in K562 cells, western blot; assay type: cell-based; set-up: endogenous in cells; settings: 1 μM, 6 hours
Description: (§1) FIG. 11. M443 inhibits MRK activity, but not BCR-Abl. K562 cells were treated with DMSO, 1 μM Nilotinib or 1 μM M443 for 6 hours and then they were processed for western blot with the indicated antibodies.

4T1 breast cancer cells = experiment: MTT cell viability after X-ray irradiation; assay type: cell-based; settings: 4T1 cells, M443 6 hours before irradiation, MTT 72 hours after
Description: FIG. 8. […] 4T1 breast cancer cells were plated in 96-well plates (750 cells per well/8 wells per condition) and treated with M443 at the indicated concentrations 6 hours before irradiating at the indicated dosages. 72 hours after irradiation MTT solution (1.25 μg/μl) was added to all wells and incubated for an additional 3 hours before cell viability/mitochondrial activity was analyzed. Shown are the means+/−SD of 8 replicate wells.

c-Abl = c-Abl activity in brain lysates, phospho-Abl western blot; assay type: in vivo, nude mice; settings: treated versus untreated tumor
Description: M443 is a derivative of nilotinib, an inhibitor of the BCR-Abl oncogene. To examine the specificity of M443, the activity of c-Abl was also determined, by blotting the brain lysates with a phospho-Abl-(P-c-Abl) specific antibody. […] As Abl is known to respond to stress, the increase in P-c-Abl may be caused by M443-induced cell stress.

MRK [2] = target: T1, MRK; experiment: Inhibition of endogenous MRK activity induced by radiation in medulloblastoma cells; assay type: cell-based; set-up: endogenous in cells; host or cells: UW228 medulloblastoma cells
Description: FIG. 7. Inhibition of IR-induced signaling downstream of MRK by M443. […] One hour after IR treatment, cells were harvested and cell lysates were tested by western blot for the activities of MRK, p38 and Chk2 proteins using the respective phospho-specific antibodies.

BCR-Abl = target: T2, BCR-Abl (Homo sapiens, UniProt P00519); experiment: BCR-Abl activity in K562 cells, western blot; assay type: cell-based; settings: 1 μM, 6 hours
T2 construct: BCR (N-terminal fusion partner, P11274); endogenous in cells; host or cells: K562; the other entry of the earlier key: BCR (P11274, Breakpoint cluster region protein)
Description: as §1

[3] = test system: IMB226 medulloblastoma cells; experiment: Animal model of medulloblastoma, orthotopic implantation, survival; assay type: in vivo, nude mice
Description: FIG. 9. Kaplan-Meier survival curve. Three weeks after implantation of IMB226 medulloblastoma cells in nude mice, animals were randomized into 4 groups of 12 mice for each treatment. M443 or the vehicle were delivered directly into the tumor via an ALZET pump.
The effect of M443 was tested in an animal model of medulloblastoma that employs orthotopic implantation of IMB226 medulloblastoma cells in nude mice. M443 was administered directly into the tumor using an osmotic pump that is connected to a catheter implanted into the brain in order to bypass the blood-brain barrier.

MRK [4] = experiment: Inhibition of MRK in vivo, brain lysates western blot; set-up: species or system nude mice; settings: 18 hours after pump implantation
Description: FIG. 10. Inhibition of MRK in vivo. Brains from control and M443-treated animals were harvested 18 hours after pump implantation. Each cerebellum was dissected from the rest of the brain and divided into left (L) and right (R), top (T) and bottom (B) portions. Brain lysates were tested for MRK activity by western blotting. Human HLA (hu-HLA) was used to identify the brain portions containing tumor cells of human origin. Tubulin was used as loading control.
To confirm that M443 administered into the brain inhibited MRK, brain extracts were obtained 18 hours after pump implantation, and MRK activity determined. […] The hu-HLA signal indicates the presence of tumor in the treated sample (lane 5).

Chk2 = experiment: IR-induced signaling downstream of MRK, phospho-Chk2 western blot; assay type: cell-based; settings: UW228 cells, 500 nM M443 6 hours, 1 hour after IR
Description: (§2) FIG. 7. Inhibition of IR-induced signaling downstream of MRK by M443. UW228 medulloblastoma cells were treated with 500 nM of M443 or with vehicle for 6 hours, and then exposed to IR or not. One hour after IR treatment, cells were harvested and cell lysates were tested by western blot for the activities of MRK, p38 and Chk2 proteins using the respective phospho-specific antibodies.
(§3) By inhibiting MRK activity, M443 was expected to reduce signal transduction downstream of MRK. […] Thus, M443 inhibits MRK activation by IR and its downstream signaling events, which leads to loss of cell viability after exposure to IR.

MRK [5] = experiment: Irreversible inhibition of MRK activity after washout (P-MRK western blot); assay type: cell-based; settings: cells expressing activatable MRK construct, pretreated 6 hours, washed, then homodimerizing drug
Description: FIG. 5. M443 inhibits MRK activity in an irreversible fashion. Cells expressing an activatable MRK construct were pretreated with the indicated inhibitors for 6 hours, then they were washed with PBS 3 times, incubated for 15 minutes, washed once more and after 15 minutes they were treated with the homodimerizing drug to activate MRK. Cell lysates were western blotted with the P-MRK antibody to detect active MRK (top blot). Histograms are data from quantified P-MRK bands from three independent experiments.

[6] = test system: UW228 medulloblastoma cells; experiment: Colony formation assay with radiation; assay type: cell-based; settings: 6 hours M443 before radiation, colonies counted after 7 days
Description: FIG. 6. M443 sensitizes UW228 medulloblastoma cells to radiation. UW228 cells were seeded for the colony formation assay at 500 cells/dish. The following day, they were treated for 6 hours with the indicated doses of M443 and then exposed to different doses of radiation. After incubation at 37° C. for 7 days, colonies larger than 50 cells were counted.

p38 = experiment: IR-induced signaling downstream of MRK, phospho-p38 western blot; assay type: cell-based; settings: UW228 cells, 500 nM M443 6 hours, 1 hour after IR
Description: as §2, §3

MRK [7] = target: T1, MRK; set-up: endogenous in cells; host or cells: UW228 medulloblastoma cells; settings: reference (6); cited from earlier work

T1 sequence (Q9NYL2 whole entry): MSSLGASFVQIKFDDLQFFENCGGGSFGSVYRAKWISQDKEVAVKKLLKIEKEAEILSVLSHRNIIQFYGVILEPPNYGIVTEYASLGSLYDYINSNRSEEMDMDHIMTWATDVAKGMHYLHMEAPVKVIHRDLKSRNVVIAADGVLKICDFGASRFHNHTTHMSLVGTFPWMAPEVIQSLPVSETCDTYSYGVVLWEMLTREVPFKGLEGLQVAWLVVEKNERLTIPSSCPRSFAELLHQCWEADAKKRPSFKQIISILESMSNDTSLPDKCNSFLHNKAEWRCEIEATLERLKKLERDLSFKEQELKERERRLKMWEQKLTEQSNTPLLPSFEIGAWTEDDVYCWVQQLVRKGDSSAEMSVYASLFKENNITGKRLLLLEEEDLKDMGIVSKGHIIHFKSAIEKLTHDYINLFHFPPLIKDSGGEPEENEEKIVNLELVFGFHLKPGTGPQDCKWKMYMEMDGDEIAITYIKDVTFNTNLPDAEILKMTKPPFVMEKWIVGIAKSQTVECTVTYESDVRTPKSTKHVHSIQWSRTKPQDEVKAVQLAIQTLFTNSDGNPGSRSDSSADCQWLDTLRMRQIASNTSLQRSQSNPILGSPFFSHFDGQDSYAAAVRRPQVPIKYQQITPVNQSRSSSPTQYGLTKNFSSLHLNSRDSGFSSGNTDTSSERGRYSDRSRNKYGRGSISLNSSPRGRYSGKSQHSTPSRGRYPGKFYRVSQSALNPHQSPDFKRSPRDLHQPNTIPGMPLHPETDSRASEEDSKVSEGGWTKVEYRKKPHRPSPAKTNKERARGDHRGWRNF
T2 sequence (P00519 with tags, fused parts or gaps): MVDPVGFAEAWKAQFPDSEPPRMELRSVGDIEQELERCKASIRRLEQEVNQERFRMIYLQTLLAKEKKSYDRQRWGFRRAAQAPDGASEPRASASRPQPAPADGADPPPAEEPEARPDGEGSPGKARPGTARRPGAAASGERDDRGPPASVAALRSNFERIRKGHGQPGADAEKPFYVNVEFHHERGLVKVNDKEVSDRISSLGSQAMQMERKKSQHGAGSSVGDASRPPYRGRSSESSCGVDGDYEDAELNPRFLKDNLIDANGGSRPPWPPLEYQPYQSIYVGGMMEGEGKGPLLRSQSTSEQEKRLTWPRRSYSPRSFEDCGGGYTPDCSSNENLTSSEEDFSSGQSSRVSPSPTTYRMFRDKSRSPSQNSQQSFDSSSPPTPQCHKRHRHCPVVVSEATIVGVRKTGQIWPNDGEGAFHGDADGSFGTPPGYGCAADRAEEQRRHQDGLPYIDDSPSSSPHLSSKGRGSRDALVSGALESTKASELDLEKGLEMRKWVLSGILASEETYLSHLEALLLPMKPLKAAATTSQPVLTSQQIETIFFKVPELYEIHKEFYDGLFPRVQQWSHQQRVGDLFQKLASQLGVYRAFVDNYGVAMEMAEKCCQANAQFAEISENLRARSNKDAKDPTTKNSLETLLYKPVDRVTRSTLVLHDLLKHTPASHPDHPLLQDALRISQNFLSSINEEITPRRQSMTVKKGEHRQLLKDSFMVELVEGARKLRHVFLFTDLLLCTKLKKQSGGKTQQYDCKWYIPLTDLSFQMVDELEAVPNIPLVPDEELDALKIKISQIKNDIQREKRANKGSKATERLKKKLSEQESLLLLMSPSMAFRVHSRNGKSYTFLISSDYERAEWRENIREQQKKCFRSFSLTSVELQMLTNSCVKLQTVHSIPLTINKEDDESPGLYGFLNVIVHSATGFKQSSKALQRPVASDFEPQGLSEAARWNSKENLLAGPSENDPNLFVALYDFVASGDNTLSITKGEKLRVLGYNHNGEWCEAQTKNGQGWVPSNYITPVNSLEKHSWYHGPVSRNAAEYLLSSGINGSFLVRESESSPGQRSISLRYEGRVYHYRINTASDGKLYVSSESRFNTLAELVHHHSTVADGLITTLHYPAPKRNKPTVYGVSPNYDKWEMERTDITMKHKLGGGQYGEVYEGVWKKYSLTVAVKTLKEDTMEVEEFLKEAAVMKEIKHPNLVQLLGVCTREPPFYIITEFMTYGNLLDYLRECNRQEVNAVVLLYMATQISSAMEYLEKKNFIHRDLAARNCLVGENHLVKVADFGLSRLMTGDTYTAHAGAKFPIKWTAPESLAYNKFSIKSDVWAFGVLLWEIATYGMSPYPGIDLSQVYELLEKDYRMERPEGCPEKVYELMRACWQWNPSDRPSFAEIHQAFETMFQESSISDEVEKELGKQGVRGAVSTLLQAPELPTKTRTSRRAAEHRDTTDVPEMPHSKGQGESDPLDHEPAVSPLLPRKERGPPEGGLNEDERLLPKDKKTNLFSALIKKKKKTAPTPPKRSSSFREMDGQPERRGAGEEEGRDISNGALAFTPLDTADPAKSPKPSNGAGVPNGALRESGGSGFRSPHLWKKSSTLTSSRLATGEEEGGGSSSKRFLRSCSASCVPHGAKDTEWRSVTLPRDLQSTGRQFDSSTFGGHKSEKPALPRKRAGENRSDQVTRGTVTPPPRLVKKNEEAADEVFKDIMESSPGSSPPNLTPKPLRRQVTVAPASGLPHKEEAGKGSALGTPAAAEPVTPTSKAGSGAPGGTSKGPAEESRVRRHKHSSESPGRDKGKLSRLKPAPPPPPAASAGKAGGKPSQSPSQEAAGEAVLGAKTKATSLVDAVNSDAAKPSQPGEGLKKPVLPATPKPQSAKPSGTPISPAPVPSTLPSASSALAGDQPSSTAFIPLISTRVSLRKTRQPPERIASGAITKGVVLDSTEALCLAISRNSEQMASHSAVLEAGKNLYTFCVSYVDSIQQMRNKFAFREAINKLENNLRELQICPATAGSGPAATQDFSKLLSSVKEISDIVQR

C=CC(=O)N1CCCC(c2ccnc(Nc3cc(C(=O)Nc4cc(-n5cnc(C)c5)cc(C(F)(F)F)c4)ccc3C)n2)C1 (stereo not shown) [M443]
inhibition of MRK activity in K562 cells (MRK [1]): as efficient as nilotinib | sensitization to X-ray irradiation (MTT viability) (4T1 breast cancer cells): sensitizes breast cancer cells to X-ray irradiation | P-c-Abl signal in brain lysates (c-Abl): somewhat increased | IC50 (MRK [2]): ~125 nM | inhibition of BCR-Abl in K562 cells (BCR-Abl): does not inhibit BCR-Abl | survival benefit, M443 on its own ([3]; IMB226 orthotopic in nude mice, M443 into the tumor via osmotic pump, no IR): 5 days | increase in survival, combination of M443 and IR ([3]; IMB226 orthotopic in nude mice, M443 into the tumor via osmotic pump, plus IR): 16 days | tumor hemorrhage ([3]; M443-treated tumors): less hemorrhagic | radiosensitization effect on survival ([3]; p<0.0029, 2×2 factorial Cox model): very significant radiosensitization effect | P-MRK signal in brain lysates (MRK [4]): none of the fractions from the M443-treated animal had a detectable signal for P-MRK | total MRK levels in tumors (MRK [4]): strongly decreased | activation of Chk2 by ionizing radiation (Chk2): greatly reduced | inhibition of MRK activity (P-MRK) after washout (MRK [5]): effectively inhibits MRK in an irreversible fashion | sensitization to killing by radiation (colony formation) [6]: strongly sensitized | activation of p38 by ionizing radiation (p38): greatly reduced

Cc1cn(-c2cc(NC(=O)c3ccc(C)c(Nc4nccc(-c5cccnc5)n4)c3)cc(C(F)(F)F)c2)cn1 [nilotinib]
binding to MRK (MRK [7]): binds strongly to MRK
